Seven compounds from patent publication US20190225650A1, “PEPTIDOMIMETIC MACROCYCLES AND USE THEREOF IN REGULATING HIF1ALPHA” (AILERON THERAPEUTICS, INC., priority 2013, published 2019) can be followed below.

Bridge positions count the residues as written; N and C are the ends. Square brackets hold non-standard residues; d marks the D form. Peptide text beside a SMILES is read from it. R8 = C=CCCCCCC[C@@](C)(N)C(=O)O; S5 = C=CCCC[C@](C)(N)C(=O)O; Nle = CCCC[C@H](N)C(=O)O

Test [1] addresses T1, flag-tagged HIF1α (AA 786-826) / His6-tagged p300 (AA 323-423) complex (Homo sapiens, UniProt Q09472).
T1 construct: His6-tagged p300 (AA 323-423); made in house; host or cells: E. coli (pETDuet vector)
The test is described as follows: HIF1α p300 displacement assay (TR FRET, +CHAPS). The class given is binding. Particulars: read-out: IC50 (nM) (HIF1α_p300 Displacement + CHAPS). The procedure, abridged: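 In this TR-FRET displacement format, peptides compete HIF1α C-terminal transactivation domain off p300-CH. They were preincubated 1 h at room temperature with 300 nM complex in HEPES pH 7.4/NaCl buffer with 7.5 mM CHAPS and 1 mM DTT. Anti-His-D2 (4 nM) and anti-Flag-K (0.5 μM) followed for 2 h, and a one-site fit of the fluorescence ratio gave IC50.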
In general terms: TR-FRET usually uses a lanthanide donor and a delayed reading to cut background.

Test [2] relates to HRE-bla ME-180 cells. The test is described as follows: Reporter gene assay (HRE-bla ME-180 HIF reporter, GeneBLAzer). The test is classed as cell-based, human. Particulars: for EC50: 24 hour normoxia. The procedure, abridged: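 A FRET β-lactamase readout of HIF transcription was used. After compound treatment in 0.3% DMSO/media under normoxic conditions, 20 μl of 6× LiveBLAzer-FRET B/G (CCF4-AM) substrate was added. Plates sat 3 hr at room temperature in the dark and were read at 409 Ex/460Em and 409Ex/530Em on a Synergy 2. Inhibition was compared against DMSO vehicle controls, with chetomin as positive control.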
On the technique in general: A reporter such as luciferase makes a cellular process visible.

Test [3] deals with HRE-bla ME-180 cells. The test is described as follows: Cell proliferation assay (viability, MTT, 1% FBS). The class given is cell-based, human. The procedure, abridged: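 Viable cell number was measured with the CellTiter 96 (MTT) kit after compounds were applied for a 16 h normoxic (21% O2) pretreatment, followed by further normoxic or hypoxic (1% O2) culture. Cells: 2×10^4 ME-180 per well, Opti-MEM + 1% FBS, 0.5% DMSO vehicle.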

Usually IC50 stands for the point on the concentration scale where inhibition reaches its midpoint. Broadly, the EC50 is the concentration needed to bring the measured effect to its halfway point. As to `CCCC[C@H](NC(=O)[C@H](CCC(=O)O)NC(=O)[C@]1(C)CCCC=CCCCCCC[C@@](C)(NC(=O)[C@H](CCC(=O)O)NC(=O)[C@H](CC(=O)O)NC(=O)[C@@H](NC(=O)[C@H](CC(N)=O)NC(=O)[C@@H](NC(=O)[C@H](CCC(N)=O)NC(=O)[C@]2(C)CCCC=CCCC[C@](C)(NC(=O)[C@H](CC(C)C)NC(=O)[C@H](CCC(=O)O)NC(=O)[C@H](C)NC(=O)CNC(=O)[C@H](CCC(N)=O)NC(=O)[C@H](CC(C)C)NC(=O)[C@H](CC(C)C)NC(C)=O)C(=O)N[C@@H](CCCNC(=N)N)C(=O)N[C@@H](C)C(=O)N[C@@H](CC(C)C)C(=O)N2)C(C)C)[C@@H](C)CC)C(=O)N[C@@H](C(C)C)C(=O)N[C@@H](CC(C)C)C(=O)N[C@@H](CCCC)C(=O)N[C@@H](CO)C(=O)N[C@@H](CC(C)C)C(=O)N[C@@H](C(C)C)C(=O)N1)C(N)=O` [SP-360] (Ac-LLQGAEL[S5]RAL[S5]QVNIDE[R8]VL[Nle]SLV[S5]E[Nle]-NH2; staple 8-12, 19-26), the IC50 in test [1] lay in the range of 200 to 400 nM. Moreover, in the test on HRE-bla ME-180 cells [2], the “18 h Avg % max inhibition at top conc (HIF Rptr-24 hrs normoxia) (μM)” value (from here on “18 h Avg % max inhibition at top conc”) is recorded as “++ (≤10 but <25: ++)” and the EC50 is above 30 µM. Moreover, in the test on HRE-bla ME-180 cells [3], the “Viability 1% FBS AVG (MTT V3-24 hr Normoxia) (μM)” value (from here on “Viability 1% FBS AVG”) was “++++ (≥30: ++++)”.

On to `CCCC[C@H](NC(=O)[C@H](CC(C)C)NC(=O)[C@@H](NC(=O)[C@H](CCC(=O)O)NC(=O)[C@H](CCC(=O)O)NC(=O)[C@H](CC(=O)O)NC(=O)[C@@H](NC(=O)[C@H](Cc1ccccc1)NC(C)=O)[C@@H](C)CC)C(C)C)C(=O)N[C@@]1(C)CCCC=CCCC[C@@](C)(C(=O)N[C@@H](CCSC)C(=O)N[C@@H](C)C(=O)N[C@@H](CC(C)C)C(N)=O)NC(=O)[C@H]([C@@H](C)CC)NC(=O)[C@H](C(C)C)NC(=O)[C@H](CC(C)C)NC1=O` [SP-224] (Ac-FIDEEVL[Nle][S5]LVI[S5]MAL-NH2; staple 9-13), for which the IC50 in test [1] is 400 to 700 nM. For the same compound, in the test on HRE-bla ME-180 cells [2], the “18 h Avg % max inhibition at top conc” value was “++ (≤10 but <25: ++)” and the EC50 is above 30 µM. For the same compound, the “Viability 1% FBS AVG” value with HRE-bla ME-180 cells [3] is “++++ (≥30: ++++)”.

With `CC[C@H](C)[C@H](NC(=O)[C@H](CCCNC(=N)N)NC(=O)[C@H](CC(N)=O)NC(=O)[C@H](CC(C)C)NC(=O)[C@H](C)NC(=O)[C@H](CCSC)NC(=O)[C@]1(C)CCCC=CCCC[C@](C)(NC(=O)[C@H](CCSC)NC(=O)[C@H](CC(C)C)NC(=O)[C@@H](NC(=O)[C@H](C)NC(=O)[C@H](CCC(N)=O)NC(=O)[C@H](CC(N)=O)NC(=O)[C@@H](NC(=O)[C@H](Cc2ccccc2)NC(C)=O)[C@@H](C)CC)C(C)C)C(=O)N[C@@H](CC(C)C)C(=O)N[C@@H](C(C)C)C(=O)N[C@@H]([C@@H](C)CC)C(=O)N1)C(N)=O` [SP-272] (Ac-FINQAVLM[S5]LVI[S5]MALNRI-NH2; staple 9-13), in test [1], the IC50 is above 700 nM. Moreover, in the test on HRE-bla ME-180 cells [2], the “18 h Avg % max inhibition at top conc” value was “++++ (≥50: ++++)” and the EC50 is at most 5 µM. In addition, the “Viability 1% FBS AVG” value with HRE-bla ME-180 cells [3] is listed as “++ (≤5 but <15: ++)”.

Take `CCCC[C@H](NC(=O)[C@H](CC(C)C)NC(=O)[C@@H](NC(=O)[C@H](CCC(=O)O)NC(=O)[C@H](CCC(=O)O)NC(=O)[C@H](C)NC(=O)[C@@H](NC(=O)[C@H](Cc1ccccc1)NC(C)=O)[C@@H](C)CC)C(C)C)C(=O)N[C@@]1(C)CCCC=CCCC[C@@](C)(C(=O)N[C@@H](CCCC)C(=O)N[C@@H](C)C(=O)N[C@@H](CC(C)C)C(=O)N[C@@H](CC(=O)O)C(=O)N[C@@H](C)C(=O)N[C@H](C(N)=O)[C@@H](C)CC)NC(=O)[C@H]([C@@H](C)CC)NC(=O)[C@H](C(C)C)NC(=O)[C@H](CC(C)C)NC1=O` [SP-221] (Ac-FIAEEVL[Nle][S5]LVI[S5][Nle]ALDAI-NH2; staple 9-13): the IC50 in test [1] is 200 to 400 nM. In addition, in the test on HRE-bla ME-180 cells [2], the “18 h Avg % max inhibition at top conc” value was “++++ (≥50: ++++)” and the EC50 is 15 to 30 µM. Besides, the “Viability 1% FBS AVG” value with HRE-bla ME-180 cells [3] is given as “++++ (≥30: ++++)”.

Take `CCCC[C@H](NC(=O)[C@H](C)NC(=O)[C@]1(C)CCCC=CCCCCCC[C@@](C)(NC(=O)[C@H](CCC(=O)O)NC(=O)[C@H](CC(=O)O)NC(=O)[C@@H](NC(=O)[C@H](CC(N)=O)NC(=O)[C@@H](NC(=O)[C@H](CCC(N)=O)NC(=O)[C@]2(C)CCCC=CCCC[C@](C)(NC(=O)[C@H](CC(C)C)NC(=O)[C@H](CCC(=O)O)NC(=O)[C@H](CCC(=O)O)NC(=O)CNC(=O)[C@H](CCC(N)=O)NC(=O)[C@H](CC(C)C)NC(=O)[C@H](CC(C)C)NC(C)=O)C(=O)N[C@@H](CCCNC(=N)N)C(=O)N[C@@H](C)C(=O)N[C@@H](CC(C)C)C(=O)N2)C(C)C)[C@@H](C)CC)C(=O)N[C@@H](C(C)C)C(=O)N[C@@H](CC(C)C)C(=O)N[C@@H](CCCC)C(=O)N[C@@H](CO)C(=O)N[C@@H](CC(C)C)C(=O)N[C@@H](C(C)C)C(=O)N1)C(N)=O` [SP-363] (Ac-LLQGEEL[S5]RAL[S5]QVNIDE[R8]VL[Nle]SLV[S5]A[Nle]-NH2; staple 8-12, 19-26): in test [1], the IC50 was above 700 nM. Besides, in the test on HRE-bla ME-180 cells [2], the “18 h Avg % max inhibition at top conc” value is reported as “++ (≤10 but <25: ++)” and the EC50 is above 30 µM. Besides, the “Viability 1% FBS AVG” value with HRE-bla ME-180 cells [3] is recorded as “++++ (≥30: ++++)”.

As for `CCCC[C@H](NC(=O)[C@H](C)NC(=O)[C@]1(C)CCCC=CCCCCCC[C@@](C)(NC(=O)[C@H](CCC(=O)O)NC(=O)[C@H](CC(=O)O)NC(=O)[C@@H](NC(=O)[C@H](Cc2ccccc2)NC(C)=O)[C@@H](C)CC)C(=O)N[C@@H](C(C)C)C(=O)N[C@@H](CC(C)C)C(=O)N[C@@H](CCCC)C(=O)N[C@@H](CO)C(=O)N[C@@H](CC(C)C)C(=O)N[C@@H](C(C)C)C(=O)N1)C(=O)N[C@@H](C)C(=O)N[C@@H](CC(C)C)C(N)=O` [SP-196] (Ac-FIDE[R8]VL[Nle]SLV[S5]A[Nle]AL-NH2; staple 5-12), the IC50 in test [1] is 200 to 400 nM. In the test with HRE-bla ME-180 cells [2], the “18 h Avg % max inhibition at top conc” value is reported as “++++ (≥50: ++++)” and the EC50 was at most 5 µM. In the test with HRE-bla ME-180 cells [3], the “Viability 1% FBS AVG” value is reported as “++++ (≥30: ++++)”.

With `CCCC[C@H](NC(=O)[C@]1(C)CCCC=CCCC[C@](C)(NC(=O)[C@H](CCCC)NC(=O)[C@H](CC(C)C)NC(=O)[C@@H](NC(=O)[C@H](CCC(=O)O)NC(=O)[C@H](CCC(=O)O)NC(=O)[C@H](C)NC(=O)[C@@H](NC(=O)[C@H](CC(N)=O)NC(=O)[C@@H](NC(=O)[C@]2(C)CCCC=CCCCCCC[C@@](C)(NC(=O)[C@H](CCC(=O)O)NC(=O)CNC(=O)[C@H](CCC(N)=O)NC(=O)[C@H](CC(C)C)NC(=O)[C@H](CC(C)C)NC(C)=O)C(=O)N[C@@H](CC(C)C)C(=O)N[C@@H](CC(C)C)C(=O)N[C@@H](CCCNC(=N)N)C(=O)N[C@@H](C)C(=O)N[C@@H](CC(C)C)C(=O)N[C@@H](CC(=O)O)C(=O)N2)C(C)C)[C@@H](C)CC)C(C)C)C(=O)N[C@@H](CC(C)C)C(=O)N[C@@H](C(C)C)C(=O)N[C@@H]([C@@H](C)CC)C(=O)N1)C(N)=O` [SP-349] (Ac-LLQGE[R8]LLRALD[S5]VNIAEEVL[Nle][S5]LVI[S5][Nle]-NH2; staple 6-13, 23-27), the IC50 in test [1] was at most 200 nM. In the test on HRE-bla ME-180 cells [2], the “18 h Avg % max inhibition at top conc” value was “+++ (≤25 but <50: +++)” and the EC50 is above 30 µM. For the same compound, the “Viability 1% FBS AVG” value in the test on HRE-bla ME-180 cells [3] was “++++ (≥30: ++++)”.
